Laboratory results as given in patent publication US11512079B2, “Heterocycle substituted pyridine derivative antifungal agents” (Amplyx Pharmaceuticals, Inc., priority 2017, dated 2022).
In brackets after ≈: the same amount, converted by molar mass.

Columns and labels:
Type in all cases: cell-based
Cryptococcus gattii = experiment: In vitro antifungal assay (Example IX), microdilution broth, MIC; settings: minimum inhibitory concentration (≥50% inhibition), 35° C., 72 h (Cryptococcus), RPMI1640
Method in brief: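 Broth microdilution in RPMI1640 with 2.5×10^3 cells/mL inoculum; final compound concentrations were 2–0.0019 μg/mL, with 1% DMSO. Cryptococcus plates were incubated at 35 °C for 72 h, and growth was read at 600 nm to give the MIC.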

Candida albicans 90028 = experiment: as above; settings: minimum inhibitory concentration (≥50% inhibition), 35° C., 40-48 h, RPMI1640
Method in brief: (§1)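 CLSI broth microdilution in RPMI1640 with 2.5×10^3 cells/mL and final compound concentrations of 2-0.0019 μg/mL (1% DMSO). C. albicans 90028 plates were incubated at 35° C. for 40-48 h and C. neoformans H99 for 72 h. MIC was read as minimum inhibitory concentration, verified at 600 nm.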

[1] = test system: Cryptococcus neoformans H99; experiment: as above; settings: minimum inhibitory concentration (≥50% inhibition), 35° C., 72 h, RPMI1640
Method in brief: as §1

[2] = test system: Rhizomucor pusillus 46342; experiment: In vitro antifungal assay (Example IX), microdilution broth, MEC; settings: minimum effective concentration (shortening of hyphae), 35° C., 40-48 h, RPMI1640
Method in brief: (§2)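 Spore suspensions of A. fumigatus and R. pusillus adjusted to 1-2×10^4 spores/mL in RPMI1640 and exposed to compound dilutions prepared in DMSO, by broth microdilution. MEC taken as the lowest concentration shortening hyphae versus DMSO control wells, read as for echinocandins.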

[3] = test system: Aspergillus fumigatus MYA3626; experiment: as above; settings: minimum effective concentration (shortening of hyphae), 35° C., 40-48 h, RPMI1640
Method in brief: as §2

Compound | MIC (Cryptococcus gattii) | MIC (Candida albicans 90028) | MIC [1] | minimal effective concentration [2] | minimal effective concentration [3]
Nc1ncccc1-c1cc(Cc2ccc(Cc3cc(F)cc(F)c3)cc2)no1 [compound 212, 3-(3-(4-(3,5-difluorobenzyl)benzyl)isoxazol-5-yl)pyridin-2-amine] | 0.01 to 0.1 µg/mL (≈ 0.0265 to 0.265 µM) | 0.1 to 1 µg/mL (≈ 0.265 to 2.65 µM) | 0.01 to 0.1 µg/mL (≈ 0.0265 to 0.265 µM) | 0.1 to 1 µg/mL | 0.1 to 1 µg/mL
Nc1ncccc1-c1cc(Cc2ccc(SCc3ccccc3)nc2)no1 [compound 61, 3-(3-((6-(benzylthio)pyridin-3-yl)methyl)isoxazol-5-yl)pyridin-2-amine] | 0.01 to 0.1 µg/mL (≈ 0.0267 to 0.267 µM) | 0.01 to 0.1 µg/mL (≈ 0.0267 to 0.267 µM) | 0.1 to 1 µg/mL (≈ 0.267 to 2.67 µM) | > 1 µg/mL | 0.01 to 0.1 µg/mL
COc1cc(F)cc(Cc2ccc(Cc3cc(-c4cccnc4N)on3)cc2)c1 [compound 216, 3-(3-(4-(3-fluoro-5-methoxybenzyl)benzyl)isoxazol-5-yl)pyridin-2-amine] | 0.1 to 1 µg/mL (≈ 0.257 to 2.57 µM) | 0.1 to 1 µg/mL (≈ 0.257 to 2.57 µM) | 0.1 to 1 µg/mL (≈ 0.257 to 2.57 µM) | > 1 µg/mL | 0.1 to 1 µg/mL
Nc1ncccc1-c1cc(Cc2ccc(OCc3ccc(F)cc3)nc2)no1 [compound 187, 3-(3-((6-((4-fluorobenzyl)oxy)pyridin-3-yl)methyl)isoxazol-5-yl)pyridin-2-amine] | 0.01 to 0.1 µg/mL (≈ 0.0266 to 0.266 µM) | 0.1 to 1 µg/mL (≈ 0.266 to 2.66 µM) | 0.1 to 1 µg/mL (≈ 0.266 to 2.66 µM) | 0.1 to 1 µg/mL | 0.1 to 1 µg/mL
Nc1ncccc1-c1cc(Cc2ccc(CNc3ccccc3F)cc2)no1 [compound 106, 3-(3-(4-(((2-fluorophenyl)amino)methyl)benzyl)isoxazol-5-yl)pyridin-2-amine] | 0.01 to 0.1 µg/mL (≈ 0.0267 to 0.267 µM) | 0.01 to 0.1 µg/mL (≈ 0.0267 to 0.267 µM) | 0.1 to 1 µg/mL (≈ 0.267 to 2.67 µM) | 0.1 to 1 µg/mL | 0.01 to 0.1 µg/mL
Nc1ncccc1-c1cc(Cc2ccc(OCc3ccn4ccnc4c3)nc2)no1 [compound 206, 3-(3-((6-(imidazo[1,2-a]pyridine-7-ylmethoxy)pyridin-3-yl)methyl)isoxazol-5-yl)pyridin-2-amine] | > 1 µg/mL | > 1 µg/mL | > 1 µg/mL | > 1 µg/mL | > 1 µg/mL
Nc1ncccc1-c1cc(Cc2ccc(-c3ccncc3)cc2)no1 [compound 204, 3-(3-(4-(pyridin-4-yl)benzyl)isoxazol-5-yl)pyridin-2-amine] | > 1 µg/mL | > 1 µg/mL | > 1 µg/mL | > 1 µg/mL | > 1 µg/mL
Nc1ncccc1-c1cc(Cc2ccc(OCCc3ccc(F)cc3)nc2)no1 [compound 79, 3-(3-((6-(4-fluorophenethoxy)pyridin-3-yl)methyl)isoxazol-5-yl)pyridin-2-amine] | 0.1 to 1 µg/mL (≈ 0.256 to 2.56 µM) | 0.01 to 0.1 µg/mL (≈ 0.0256 to 0.256 µM) | 0.01 to 0.1 µg/mL (≈ 0.0256 to 0.256 µM) | 0.1 to 1 µg/mL | 0.1 to 1 µg/mL
Nc1ncccc1-c1cc(Cc2ccc(Cc3ccccc3)cc2)no1 [compound 8, 3-(3-(4-benzylbenzyl)isoxazol-5-yl)pyridin-2-amine] | ≤ 0.01 µg/mL | 0.1 to 1 µg/mL (≈ 0.293 to 2.93 µM) | 0.01 to 0.1 µg/mL (≈ 0.0293 to 0.293 µM) | 0.1 to 1 µg/mL | 0.1 to 1 µg/mL
Nc1ncccc1-c1cc(Cc2ccc(OCc3nccs3)cc2)no1 [compound 112, 3-(3-(4-(thiazol-2-ylmethoxy)benzyl)isoxazol-5-yl)pyridin-2-amine] | 0.01 to 0.1 µg/mL (≈ 0.0274 to 0.274 µM) | 0.1 to 1 µg/mL (≈ 0.274 to 2.74 µM) | 0.01 to 0.1 µg/mL (≈ 0.0274 to 0.274 µM) | 0.1 to 1 µg/mL | 0.01 to 0.1 µg/mL
Nc1ncccc1-c1cc(Cc2ccc(OCCCc3ccccc3)nc2)no1 [compound 213, 3-(3-((6-(3-phenylpropoxy)pyridin-3-yl)methyl)isoxazol-5-yl)pyridin-2-amine] | 0.1 to 1 µg/mL (≈ 0.259 to 2.59 µM) | 0.1 to 1 µg/mL (≈ 0.259 to 2.59 µM) | 0.1 to 1 µg/mL (≈ 0.259 to 2.59 µM) | > 1 µg/mL | 0.1 to 1 µg/mL
Nc1ncccc1-c1cc(Cc2ccc(OCc3ccco3)nc2)no1 [compound 73, 3-(3-((6-(furan-2-ylmethoxy)pyridin-3-yl)methyl)isoxazol-5-yl)pyridin-2-amine] | > 1 µg/mL | 0.01 to 0.1 µg/mL (≈ 0.0287 to 0.287 µM) | > 1 µg/mL | > 1 µg/mL | 0.1 to 1 µg/mL
Nc1ncccc1-c1cc(Cc2ccc(Oc3cccc(F)n3)c(F)c2)no1 [compound 258, 3-(3-(3-fluoro-4-((6-fluoropyridin-2-yl)oxy)benzyl)isoxazol-5-yl)pyridin-2-amine] | 0.1 to 1 µg/mL (≈ 0.263 to 2.63 µM) | 0.1 to 1 µg/mL (≈ 0.263 to 2.63 µM) | 0.01 to 0.1 µg/mL (≈ 0.0263 to 0.263 µM) | 0.1 to 1 µg/mL | 0.01 to 0.1 µg/mL
Nc1ncccc1-c1cc(Cc2ccc(Cc3cc(F)nc(F)c3)cc2)no1 [compound 261, 3-(3-(4-((2,6-difluoropyridin-4-yl)methyl)benzyl)isoxazol-5-yl)pyridin-2-amine] | 0.1 to 1 µg/mL (≈ 0.264 to 2.64 µM) | 0.1 to 1 µg/mL (≈ 0.264 to 2.64 µM) | 0.1 to 1 µg/mL (≈ 0.264 to 2.64 µM) | 0.1 to 1 µg/mL | 0.1 to 1 µg/mL
Nc1ncccc1-c1cc(Cc2ccc(CCc3ccccc3)cc2)no1 [compound 18, 3-(3-(4-phenethylbenzyl)isoxazol-5-yl)pyridin-2-amine] | 0.1 to 1 µg/mL (≈ 0.281 to 2.81 µM) | 0.01 to 0.1 µg/mL (≈ 0.0281 to 0.281 µM) | 0.1 to 1 µg/mL (≈ 0.281 to 2.81 µM) | 0.1 to 1 µg/mL | 0.01 to 0.1 µg/mL
[N-]=[N+]=Nc1cccc(NCc2ccc(Cc3cc(-c4cccnc4N)on3)cc2)c1 [compound 231, 3-(3-(4-(((3-azidophenyl)amino)methyl)benzyl)isoxazol-5-yl)pyridin-2-amine] | 0.01 to 0.1 µg/mL (≈ 0.0252 to 0.252 µM) | 0.1 to 1 µg/mL (≈ 0.252 to 2.52 µM) | 0.01 to 0.1 µg/mL (≈ 0.0252 to 0.252 µM) | 0.1 to 1 µg/mL | 0.01 to 0.1 µg/mL
Nc1ccc(-c2cc(Cc3ccc(OCc4ccccc4)cc3)no2)c(N)n1 [compound 132, 3-(3-(4-(benzyloxy)benzyl)isoxazol-5-yl)pyridine-2,6-diamine] | 0.01 to 0.1 µg/mL (≈ 0.0269 to 0.269 µM) | 0.01 to 0.1 µg/mL (≈ 0.0269 to 0.269 µM) | 0.01 to 0.1 µg/mL (≈ 0.0269 to 0.269 µM) | 0.1 to 1 µg/mL | ≤ 0.01 µg/mL
Nc1ncccc1-c1cc(Cc2ccc(Cn3cc(F)cn3)cc2)no1 [compound 4, 3-(3-(4-((4-fluoro-1H-pyrazol-1-yl)methyl)benzyl)isoxazol-5-yl)pyridin-2-amine] | 0.1 to 1 µg/mL (≈ 0.286 to 2.86 µM) | 0.1 to 1 µg/mL (≈ 0.286 to 2.86 µM) | 0.1 to 1 µg/mL (≈ 0.286 to 2.86 µM) | 0.1 to 1 µg/mL | 0.01 to 0.1 µg/mL
Nc1ncccc1-c1cc(Cc2ccnc(OCC3CC3)c2)no1 [Example 150, 3-(3-((2-(cyclopropylmethoxy)pyridin-4-yl)methyl)isoxazol-5-yl)pyridin-2-amine] | 0.1 to 1 µg/mL (≈ 0.31 to 3.1 µM) | 0.1 to 1 µg/mL (≈ 0.31 to 3.1 µM) | 0.1 to 1 µg/mL (≈ 0.31 to 3.1 µM) | > 1 µg/mL | 0.1 to 1 µg/mL
Nc1ncccc1-c1cc(Cc2ccc(Cc3cn[nH]c3)cc2)no1 [compound 10, 3-(3-(4-((1H-pyrazol-4-yl)methyl)benzyl)isoxazol-5-yl)pyridin-2-amine] | 0.1 to 1 µg/mL (≈ 0.302 to 3.02 µM) | 0.1 to 1 µg/mL (≈ 0.302 to 3.02 µM) | 0.1 to 1 µg/mL (≈ 0.302 to 3.02 µM) | > 1 µg/mL | 0.1 to 1 µg/mL
Nc1ncccc1-c1cc(Cc2ccc(COc3cccnc3)cc2)no1 [compound 105, 3-(3-(4-((pyridin-3-yloxy)methyl)benzyl)isoxazol-5-yl)pyridin-2-amine] | 0.01 to 0.1 µg/mL (≈ 0.0279 to 0.279 µM) | 0.01 to 0.1 µg/mL (≈ 0.0279 to 0.279 µM) | 0.1 to 1 µg/mL (≈ 0.279 to 2.79 µM) | > 1 µg/mL | 0.1 to 1 µg/mL
Nc1ncccc1-c1cc(Cc2ccc(OCc3ccncc3)nc2)no1 [compound 37, 3-(3-((6-(pyridin-4-ylmethoxy)pyridin-3-yl)methyl)isoxazol-5-yl)pyridin-2-amine] | ≤ 0.01 µg/mL | 0.01 to 0.1 µg/mL (≈ 0.0278 to 0.278 µM) | ≤ 0.01 µg/mL | > 1 µg/mL | 0.01 to 0.1 µg/mL
Nc1ncccc1-c1cc(Cc2ccc(OCc3ccncc3F)nc2)no1 [compound 54, 3-(3-((6-((3-fluoropyridin-4-yl)methoxy)pyridin-3-yl)methyl)isoxazol-5-yl)pyridin-2-amine] | ≤ 0.01 µg/mL | 0.01 to 0.1 µg/mL (≈ 0.0265 to 0.265 µM) | 0.01 to 0.1 µg/mL (≈ 0.0265 to 0.265 µM) | > 1 µg/mL | 0.01 to 0.1 µg/mL
Nc1ncccc1-c1cc(Cc2ccc(N3CCC3c3ccccc3)nc2)no1 (stereo not shown) [compound 188, 3-(3-((6-(2-phenylazetidin-1-yl)pyridin-3-yl)methyl)isoxazol-5-yl)pyridin-2-amine] | > 1 µg/mL | > 1 µg/mL | > 1 µg/mL | 0.1 to 1 µg/mL | > 1 µg/mL
Nc1ncccc1-c1cc(Cc2ccc(Cn3cccn3)cc2)no1 [compound 1, 3-(3-(4-((1H-pyrazol-1-yl)methyl)benzyl)isoxazol-5-yl)pyridin-2-amine] | 0.01 to 0.1 µg/mL (≈ 0.0302 to 0.302 µM) | 0.01 to 0.1 µg/mL (≈ 0.0302 to 0.302 µM) | 0.1 to 1 µg/mL (≈ 0.302 to 3.02 µM) | > 1 µg/mL | 0.1 to 1 µg/mL
Nc1ncccc1-c1cc(Cc2ccc(Oc3ncc(Cl)cc3F)cc2)no1 [compound 236, 3-(3-(4-((5-chloro-3-fluoropyridin-2-yl)oxy)benzyl)isoxazol-5-yl)pyridin-2-amine] | 0.1 to 1 µg/mL (≈ 0.252 to 2.52 µM) | 0.1 to 1 µg/mL (≈ 0.252 to 2.52 µM) | 0.1 to 1 µg/mL (≈ 0.252 to 2.52 µM) | 0.1 to 1 µg/mL | 0.1 to 1 µg/mL
